# From PMC9832530 (FASEB BioAdvances, 2022)
# Biological target: T1, drFtsZ (FtsZWT) (Deinococcus radiodurans, UniProt Q9RWN5)
# T1 sequence (Q9RWN5 1-371): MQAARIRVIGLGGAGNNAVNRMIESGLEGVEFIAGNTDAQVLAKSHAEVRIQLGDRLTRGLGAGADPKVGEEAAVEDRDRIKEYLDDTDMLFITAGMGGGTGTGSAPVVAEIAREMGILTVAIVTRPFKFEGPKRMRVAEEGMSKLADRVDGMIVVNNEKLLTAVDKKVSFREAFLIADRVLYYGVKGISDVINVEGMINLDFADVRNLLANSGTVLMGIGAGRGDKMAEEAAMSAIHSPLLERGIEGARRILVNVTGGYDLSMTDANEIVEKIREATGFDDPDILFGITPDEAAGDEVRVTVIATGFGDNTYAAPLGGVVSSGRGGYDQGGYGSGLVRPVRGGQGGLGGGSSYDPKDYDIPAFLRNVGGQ
# Experiment: GTPase, [alpha-32P]-GTP to GDP by TLC
# Format: biochemical
# Conditions: 20 mM Tris-HCl pH 7.5, 75 mM KCl, MgCl2, 37 °C, 20 min; labelled compound
smiles,measurement,value
Nc1nc2c(ncn2[C@@H]2O[C@H](COP(=O)(O)OP(=O)(O)OP(=O)(O)O)[C@@H](O)[C@H]2O)c(=O)[nH]1 [GTP],"GTPase, [alpha-32P]-GTP to GDP by TLC",The GTPase activity of S235 and S335 mutants were estimated using thin‐layer chromatography
